Calls of active or inactive are those of the source.
Experiments:
[1] = target: T1, Corticotropin-releasing factor receptor 2/Corticotropin-releasing factor-binding protein (Homo sapiens, UniProt P24387+Q13324); assay: Dose Response confirmation of uHTS hits for small molecule antagonists of the CRF-binding protein and CRF-R2 receptor complex.; type: functional; conditions: read-out: IC50_Mean
T1 sequence (Q13324 whole entry): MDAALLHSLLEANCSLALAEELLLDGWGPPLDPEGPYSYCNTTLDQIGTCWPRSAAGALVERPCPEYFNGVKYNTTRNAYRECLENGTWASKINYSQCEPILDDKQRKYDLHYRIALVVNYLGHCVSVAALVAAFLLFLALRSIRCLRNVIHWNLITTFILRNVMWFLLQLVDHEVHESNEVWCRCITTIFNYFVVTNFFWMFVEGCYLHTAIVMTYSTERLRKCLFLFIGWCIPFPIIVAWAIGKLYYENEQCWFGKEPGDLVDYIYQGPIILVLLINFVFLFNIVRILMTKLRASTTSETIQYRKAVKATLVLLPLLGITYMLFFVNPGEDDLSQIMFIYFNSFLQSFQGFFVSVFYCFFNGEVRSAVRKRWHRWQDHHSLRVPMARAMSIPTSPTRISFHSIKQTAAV
T1 sequence (P24387 whole entry): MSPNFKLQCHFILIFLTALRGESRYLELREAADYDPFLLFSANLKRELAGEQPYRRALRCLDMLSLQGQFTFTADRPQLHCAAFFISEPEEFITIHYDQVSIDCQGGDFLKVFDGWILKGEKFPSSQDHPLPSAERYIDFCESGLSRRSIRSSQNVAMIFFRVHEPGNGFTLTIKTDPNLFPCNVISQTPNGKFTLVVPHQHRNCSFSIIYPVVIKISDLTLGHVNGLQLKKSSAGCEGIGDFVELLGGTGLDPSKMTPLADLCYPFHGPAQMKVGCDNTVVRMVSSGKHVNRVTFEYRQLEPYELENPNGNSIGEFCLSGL

[2] = target: T1, Corticotropin-releasing factor receptor 2/Corticotropin-releasing factor-binding protein; assay: activators of CRF receptor 2 with binding protein – uHTS hits, confirmation (AID 602473); type: functional; conditions: read-out: EC50_Mean
[3] = inhibitors of firefly luciferase expression or activity, dose response, H4 neuroglioma cells, luminescence (AID 1990); type: functional, cell-based
[4] = Luminescence Cell-Based Dose Response HTS to Identify Inhibitors of 5'UTR Stem-Loop Driven Prion Protein mRNA Translation in H4 Neuroglioblastoma Cells. [Related pubchem assays: 1827 (Project Summary), 1813 (Primary HTS)]; type: functional
[5] = inhibitors of SNCA 5'UTR-driven reporter translation, confirmation, H4 neuroglioma cells, luminescence (AID 1988); type: functional, cell-based
H9c2 = assay: cells; type: functional, cell-based; conditions: Rattus norvegicus, H9c2, Myocardium;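 note: confirmatory concentration-response retest of ultra-high-throughput screening hits for modulation of myocardial damage; cell death induced by hydrogen peroxide oxidative stress; compound pretreatment for 60 min then peroxide exposure for 2 h; potency is for protecting the cells against peroxide damage rather than for killing them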
INS1 = assay: beta cell apoptosis inhibitors, cytokine rescue, dose response, luminescence, retest (AID 449756); type: functional, cell-based; conditions: Rattus norvegicus;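 note: cell death triggered by IL-1 beta plus TNF-alpha plus IFN-gamma mixture; protective hits raise ATP signal compared with cytokine alone wells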
[6] = Luminescence Cell-Based Dose Retest to Confirm Inhibitors of Cancer Stem Cells. [Related pubchem assays (depositor defined):AID2717, AID2721]; type: functional; conditions: Homo sapiens
Cytochrome P450 2D6 = Cytochrome P450 2D6 (Homo sapiens, UniProt P10635);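 note: CYP2D6 member of a cytochrome P450 panel assay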
Sequence of Cytochrome P450 2D6 (P10635 whole entry): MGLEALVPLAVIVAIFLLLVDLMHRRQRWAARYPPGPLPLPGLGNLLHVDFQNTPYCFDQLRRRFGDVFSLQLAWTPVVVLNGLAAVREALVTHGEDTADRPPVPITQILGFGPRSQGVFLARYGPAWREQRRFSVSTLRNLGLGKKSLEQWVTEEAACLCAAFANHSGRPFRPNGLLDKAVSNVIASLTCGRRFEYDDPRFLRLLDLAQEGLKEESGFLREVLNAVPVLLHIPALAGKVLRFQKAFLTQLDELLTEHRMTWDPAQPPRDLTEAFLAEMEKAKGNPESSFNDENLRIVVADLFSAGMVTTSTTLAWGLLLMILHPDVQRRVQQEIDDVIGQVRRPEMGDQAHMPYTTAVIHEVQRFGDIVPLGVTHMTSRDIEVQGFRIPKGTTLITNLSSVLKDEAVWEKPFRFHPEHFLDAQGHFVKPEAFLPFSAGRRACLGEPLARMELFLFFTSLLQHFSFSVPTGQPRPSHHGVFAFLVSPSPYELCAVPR

Cytochrome P450 1A2 = target: T2, Cytochrome P450 1A2 (Homo sapiens, UniProt P05177);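 note: PubChem cytochrome P450 panel assay, CYP1A2 panel member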
T2 sequence (P05177 whole entry): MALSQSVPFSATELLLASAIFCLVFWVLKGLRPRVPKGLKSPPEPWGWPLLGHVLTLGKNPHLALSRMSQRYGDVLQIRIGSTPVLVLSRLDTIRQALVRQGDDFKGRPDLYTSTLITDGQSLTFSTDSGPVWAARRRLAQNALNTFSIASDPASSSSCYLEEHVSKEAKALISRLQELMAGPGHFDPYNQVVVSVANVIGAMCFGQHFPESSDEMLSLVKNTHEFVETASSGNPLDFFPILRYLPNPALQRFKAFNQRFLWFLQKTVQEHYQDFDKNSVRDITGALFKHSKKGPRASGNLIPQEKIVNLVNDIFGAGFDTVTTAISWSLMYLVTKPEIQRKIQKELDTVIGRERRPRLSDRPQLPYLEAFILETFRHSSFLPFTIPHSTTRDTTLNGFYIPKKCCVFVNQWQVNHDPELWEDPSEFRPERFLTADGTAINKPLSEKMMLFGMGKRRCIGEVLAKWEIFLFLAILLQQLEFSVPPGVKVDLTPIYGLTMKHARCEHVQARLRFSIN

Cytochrome P450 3A4 = Cytochrome P450 3A4 (Homo sapiens, UniProt P08684);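 note: CYP3A4 tested as one member of a cytochrome P450 panel screen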
Sequence of Cytochrome P450 3A4 (P08684 whole entry): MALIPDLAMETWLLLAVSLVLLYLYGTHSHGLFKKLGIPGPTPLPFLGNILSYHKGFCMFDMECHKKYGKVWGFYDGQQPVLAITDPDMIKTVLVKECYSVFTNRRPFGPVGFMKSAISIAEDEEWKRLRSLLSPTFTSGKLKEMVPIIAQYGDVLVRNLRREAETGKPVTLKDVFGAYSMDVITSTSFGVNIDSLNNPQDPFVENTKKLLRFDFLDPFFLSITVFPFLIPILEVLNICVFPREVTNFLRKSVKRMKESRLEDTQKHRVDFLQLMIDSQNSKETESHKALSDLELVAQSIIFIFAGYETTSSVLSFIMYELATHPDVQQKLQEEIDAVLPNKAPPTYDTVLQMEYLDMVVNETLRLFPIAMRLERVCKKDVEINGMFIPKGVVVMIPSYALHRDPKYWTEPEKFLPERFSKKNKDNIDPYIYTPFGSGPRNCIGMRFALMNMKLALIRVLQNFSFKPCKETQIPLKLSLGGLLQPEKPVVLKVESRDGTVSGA

[7] = target: FAD-linked sulfhydryl oxidase ALR (Homo sapiens, UniProt P55789); assay: inhibitors of human ALR sulfhydryl oxidase, dose response, biochemical, H2O2 detection, luminescence, cherry-pick (AID 493248)
Sequence of FAD-linked sulfhydryl oxidase ALR (P55789 whole entry): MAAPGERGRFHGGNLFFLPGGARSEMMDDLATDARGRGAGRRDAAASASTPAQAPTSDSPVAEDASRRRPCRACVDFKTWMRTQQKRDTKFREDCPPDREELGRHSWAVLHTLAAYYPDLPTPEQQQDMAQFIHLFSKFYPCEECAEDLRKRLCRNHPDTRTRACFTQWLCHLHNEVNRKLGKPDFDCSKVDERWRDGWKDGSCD

Cytochrome P450 2C19 = Cytochrome P450 2C19 (Homo sapiens, UniProt P33261); assay: Cytochrome panel assay with activity outcomes. Panel member name: p450-cyp2c19 Compounds with AC50 equal or less than 10 uM are considered active; type: functional; conditions: read-out: AC50
Sequence of Cytochrome P450 2C19 (P33261 whole entry): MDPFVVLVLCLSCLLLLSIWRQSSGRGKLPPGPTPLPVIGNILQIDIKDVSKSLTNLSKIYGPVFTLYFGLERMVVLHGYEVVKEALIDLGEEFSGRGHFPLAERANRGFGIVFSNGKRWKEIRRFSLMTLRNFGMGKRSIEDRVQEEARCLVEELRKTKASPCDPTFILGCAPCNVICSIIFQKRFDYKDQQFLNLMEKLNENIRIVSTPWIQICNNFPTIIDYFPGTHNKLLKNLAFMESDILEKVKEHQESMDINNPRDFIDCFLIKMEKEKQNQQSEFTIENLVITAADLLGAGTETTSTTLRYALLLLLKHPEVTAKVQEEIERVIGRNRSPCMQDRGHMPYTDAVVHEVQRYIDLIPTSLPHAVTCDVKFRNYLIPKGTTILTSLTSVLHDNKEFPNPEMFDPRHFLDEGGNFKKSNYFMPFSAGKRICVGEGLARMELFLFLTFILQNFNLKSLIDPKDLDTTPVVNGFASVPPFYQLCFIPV

CCC(C)(C)n1nnnc1C(c1cccc(C#N)c1)N1CCN(c2cccc(C)c2C)CC1 (stereo not drawn)
IC50 [1]: > 47.1 µM (inactive)
EC50 [2]: > 53 µM (inactive)

Cc1csc2ncnc(N3CCN(C(S)=Nc4ccc(C(F)(F)F)cc4)CC3)c12
EC50 [3]: > 120 µM (not active)
EC50 [4]: > 120 µM (not active)
EC50 [5]: > 120 µM (not active)

Cc1ccccc1CN(C)CC(=O)Nc1cccc(S(=O)(=O)N(C)c2ccccc2)c1
EC50 [3]: > 120 µM (not active)
EC50 [4]: > 120 µM (not active)
EC50 [5]: > 120 µM (not active)

Cc1cccc(C(C)C)c1NC(=O)C(C)OC(=O)Cc1nnc(O)c2ccccc12 (stereo not drawn)
IC50 (H9c2): 21.1 µM (active)

O=C(Nc1ncnc2c1C(c1ccccc1)c1c(ccc3ccccc13)O2)c1ccccc1 (stereo not drawn)
AC50 (INS1): 20.6 µM (active)

Fc1ccc(-c2cc(-c3nnc4n3CCCCC4)c3ccccc3n2)cc1
AC50 (INS1): 11.2 µM (active)

O=C(c1ccc(Cl)cc1)c1c[nH]c(C(=O)NNc2ccccc2)c1
AC50 [6]: 1.34 µM (active)

COc1ccc(C(=O)N2CCC3(CC2)CCN(c2ccncc2)CC3)cc1
AC50 (Cytochrome P450 2D6): 15.8 µM (inconclusive)
AC50 (Cytochrome P450 1A2): 39.8 µM (inconclusive)
AC50 (Cytochrome P450 3A4): 15.8 µM (inconclusive)

CCN(CCCNC(=O)C1CCC(=O)N1Cc1ccc(C)cc1)c1cccc(C)c1 (stereo not drawn)
AC50 [7]: 0.677 µM (active)

CC(C)CC(C(=O)NC1CCCCC1)N(Cc1cccs1)C(=O)c1snc(C(N)=O)c1N (stereo not drawn)
IC50 (H9c2): > 79 µM (inactive)

c1ccc2c(CCNc3ncnc4nc[nH]c34)c[nH]c2c1
AC50 [7]: 3.85 µM (active)

O=C1C2C3C=CC(C3)C2C(=O)N1/N=C/c1cn(Cc2ccccc2)c2ccccc12 (stereo not drawn)
EC50 [3]: 11 µM (active)
EC50 [4]: 12.5 µM (active)
EC50 [5]: 2.2 µM (active)
AC50 (Cytochrome P450 2C19): 8.91 µM (inconclusive)
AC50 (Cytochrome P450 2D6): 39.8 µM (inconclusive)

O=C(NCc1ccco1)C(c1ccccc1)N(C(=O)Cc1cccs1)c1ccccc1F (stereo not drawn)
IC50 (H9c2): > 79 µM (inactive)

CCCCC(=O)NNC(=O)N1c2ccccc2Sc2ccccc21
AC50 [7]: 0.919 µM (active)

CCOc1cccc(-c2nn3c(-c4ccco4)nnc3s2)c1
IC50 (H9c2): > 79 µM (inactive)

Cc1ccccc1N(C(=O)c1snc(C(N)=O)c1N)C(C(=O)NCc1ccccc1)c1ccc(O)cc1 (stereo not drawn)
IC50 (H9c2): > 79 µM (inactive)

COC(=O)c1ccc(CSc2nc(O)c3cnn(-c4ccc(C)cc4)c3n2)o1
EC50 [3]: 23.9 µM (active)
EC50 [4]: > 120 µM (not active)
EC50 [5]: > 120 µM (not active)

COc1ccccc1C(=O)NC(=O)COC(=O)Cn1[nH]c(=O)c2ccccc2c1=O
IC50 (H9c2): > 79 µM (inactive)

CCN(CC)c1ccc(CN2CCCCCC2)cc1
AC50 [7]: 3.84 µM (active)

Cc1ccc(/N=C2\C=C(O)C(=O)c3ccccc32)c(C)c1
AC50 (INS1): 2.06 µM (active)

Source: ChEMBL document CHEMBL1201862, “PubChem BioAssay data set” (2004)
